Assay results reported in patent US6468979B1, “Erythromycin derivatives with antibiotic activity” (Zambon Group S.p.A., priority 1998, dated 2002).
≈ marks a conversion by molar mass, not a printed value.

Tests used:
S. aureus 929 = experiment: In vitro antibacterial activity (MIC), broth dilution micromethod; format: cell-based, Staphylococcus aureus; conditions: erythromycin-resistant strain, MHB, 37° C., 18 hours
Description: (§1) The minimum inhibitory concentrations (MIC), with respect to Gram-positive bacteria (erythromycin-sensitive and -resistant strains) and Gram-negative bacteria, were determined by means of the broth-scaler dilution micromethod in twin series [National Committee for Clinical Laboratory Standards, 1990; Methods for dilution antimicrobial susceptibility tests for bacteria that grow aerobically; Approved standards M7-A2-NCCLS, Villanova, Pa.], using Mueller Hinton Broth (MHB) as culture medium.
(§2) Azithromycin [The Merck Index, XIIth Edition, No. 946) was used as reference macrolide.
(§3) The MIC values, expressed in μg/ml, were determined after incubating the microplates at 37° C. for 18 hours, by evaluating the lowest concentration of antibiotic capable of inhibiting bacterial growth.

S. aureus 77 = experiment: as above; format: cell-based, Staphylococcus aureus; conditions: erythromycin-resistant strain, MHB, 37° C., 18 hours
Description: as §1, §2, §3

S. specie 916 = experiment: as above; format: cell-based, Staphylococcus spp.; conditions: erythromycin-resistant (inducible) strain, MHB, 37° C., 18 hours
Description: as §1, §2, §3

S. coag. Neg. 845 = experiment: as above; format: cell-based, Staphylococcus spp.; conditions: erythromycin-resistant strain, MHB, 37° C., 18 hours
Description: as §1, §2, §3

S. epidermis 60 = experiment: as above; format: cell-based, Staphylococcus spp.; conditions: erythromycin-resistant (inducible) strain, MHB, 37° C., 18 hours
Description: as §1, §2, §3

S. pneumoniae 1047 = experiment: as above; format: cell-based, Streptococcus pneumoniae; conditions: erythromycin-resistant strain, MHB with 5% horse serum, 37° C., 18 hours
Description: as §1
(§4) In the case of Streptococcus pneumoniae, the medium was supplemented with 5% horse serum.
as §2, §3

S. pneumoniae 1035 = experiment: as above; format: cell-based, Streptococcus pneumoniae; conditions: erythromycin-resistant strain, MHB with 5% horse serum, 37° C., 18 hours
Description: as §1, §4, §2, §3

S. pneumoniae 1051 = experiment: as above; format: cell-based, Streptococcus pneumoniae; conditions: erythromycin-resistant strain, MHB with 5% horse serum, 37° C., 18 hours
Description: as §1, §4, §2, §3

S. haemolyticus 161 = experiment: as above; format: cell-based, Staphylococcus haemolyticus; conditions: erythromycin-resistant strain, MHB, 37° C., 18 hours
Description: as §1, §2, §3

[1] = tested on: Streptococcus pyogenes C203; experiment: In vivo therapeutic efficacy in experimental pulmonary infection in mice; conditions: CD1 mice, death observed for 7 days, probit analysis; for PD50 1 hour after infection: single oral dose 1 hour after intranasal infection; for PD50 24 hours before infection: single oral dose 24 hours before intranasal infection
Description: The therapeutic efficacy, expressed as the 50% protective dose (PD50), of the compounds of formula (I) was evaluated in the experimental pulmonary infection induced in mice by Streptococcus pyogenes C203.
Charles River albino mice (strain CD1) weighing 23-25 g were used, kept in groups of 6 to a cage and fed normally with a standard diet and water ad libitum.
A suspension of Streptococcus pyogenes C203 (equal to about 10^8 CFU) in tryptone broth (0.05 ml) was administered intranasally to each mouse, anaesthetized with a mixture of ethyl ether and chloroform.
The compounds of formula I and the clarithromycin reference compounds were administered orally in a single dose, as a 0.5% suspension Methocel® 1 hour after the infection and 24 hours before the infection.
Observation of the death of the mice was continued for 7 days after the infection.
The PD50, expressed as μmol/kg, was calculated by means of probit analysis.

Compound	MIC (S. aureus 929; Staphylococcus aureus, 929) [µg/mL]	MIC (S. aureus 77; Staphylococcus aureus, 77) [µg/mL]	MIC (S. specie 916; Staphylococcus, 916) [µg/mL]	MIC (S. coag. Neg. 845; Staphylococcus) [µg/mL]	MIC (S. epidermis 60; Staphylococcus, 60) [µg/mL]	MIC (S. pneumoniae 1047; Streptococcus pneumoniae, 1047) [µg/mL]	MIC (S. pneumoniae 1035; Streptococcus pneumoniae, 1035) [µg/mL]	MIC (S. pneumoniae 1051; Streptococcus pneumoniae, 1051) [µg/mL]	MIC (S. haemolyticus 161; Staphylococcus haemolyticus, 161) [µg/mL]	PD50 1 hour after infection [1] [µmol/kg]	PD50 24 hours before infection [1] [µmol/kg]	MIC S. aureus 929 (S. aureus 929) [µg/mL]	MIC S. aureus 77 (S. aureus 77) [µg/mL]	MIC S. specie 916* (S. specie 916) [µg/mL]	MIC S. coag. Neg. 845 (S. coag. Neg. 845) [µg/mL]	MIC S. epidermis 60* (S. epidermis 60) [µg/mL]	MIC S. haemolyticus 161 (S. haemolyticus 161) [µg/mL]	MIC S. pneumoniae 1047 (S. pneumoniae 1047) [µg/mL]	MIC S. pneumoniae 1035 (S. pneumoniae 1035) [µg/mL]	MIC S. pneumoniae 1051 (S. pneumoniae 1051) [µg/mL]
CC[C@H]1OC(=O)[C@H](C)[C@@H](O[C@H]2C[C@@](C)(OC)[C@@H](O)[C@H](C)O2)[C@H](C)[C@@H](O[C@@H]2O[C@H](C)C[C@H](N(C)C)[C@H]2O)[C@](C)(O)C[C@@H](C)CN(C)[C@H](C)[C@@H](O)[C@]1(C)O [Azithromycin, reference compound]	> 64	> 64	> 64	> 64	> 64	2 (≈ 2.67 µM)	4 (≈ 5.34 µM)	16 (≈ 21.4 µM)	> 64											
CC[C@H]1OC(=O)[C@H](C)[C@@H](O[C@H]2C[C@@](C)(OC)[C@@H](O)[C@H](C)O2)[C@H](C)[C@@H](O[C@@H]2O[C@H](C)C[C@H](N(C)C)[C@H]2O)[C@](C)(OC)C[C@@H](C)C(=O)[C@H](C)[C@@H](O)[C@]1(C)O [Clarithromycin, reference compound]										7.38	>85.6									
CC[C@H]1OC(=O)[C@H](C)[C@@H](O[C@H]2C[C@@](C)(OC)[C@@H](O)[C@H](C)O2)[C@H](C)[C@@H](O[C@@H]2O[C@H](C)C[C@H](N(C)C)[C@H]2O)[C@](C)(O)C[C@@H](C)/C(=N\OCCNCCCCCCNCc2nc(-c3nccs3)cs2)[C@H](C)[C@@H](O)[C@]1(C)O [Compound 1, erythromycin A (E)-9-[O-[2-[6-[([2,4′]bithiazole-2′-ylmethyl)amino]hexylamino]ethyl]oxime]]										22.9	15.5	>64	>64	2 (≈ 1.87 µM)	>64	2 (≈ 1.87 µM)	>64			
CC[C@H]1OC(=O)[C@H](C)[C@@H](O[C@H]2C[C@@](C)(OC)[C@@H](O)[C@H](C)O2)[C@H](C)[C@@H](O[C@@H]2O[C@H](C)C[C@H](N(C)C)[C@H]2O)[C@](C)(O)C[C@@H](C)/C(=N\OCCN(C)CCCCCCNCc2nc(-c3nccs3)cs2)[C@H](C)[C@@H](O)[C@]1(C)O [Compound 2]												>64	>64	4 (≈ 3.68 µM)	>64	2 (≈ 1.84 µM)	>64			
CC[C@H]1OC(=O)[C@H](C)[C@@H](O[C@H]2C[C@@](C)(OC)[C@@H](O)[C@H](C)O2)[C@H](C)[C@@H](O[C@@H]2O[C@H](C)C[C@H](N(C)C)[C@H]2O)[C@](C)(O)C[C@@H](C)/C(=N\OCCNCCCCCCNCc2csc(-c3cccs3)n2)[C@H](C)[C@@H](O)[C@]1(C)O [Compound 4, Erythromycin A (E)-9-[O-[2-[6-[(2-thiophen-2-ylthiazol-4-ylmethyl)amino]hexylamino]ethyl]oxime]]										11.4	14.3	16 (≈ 14.9 µM)	64 (≈ 59.8 µM)	8 (≈ 7.47 µM)	16 (≈ 14.9 µM)	0.5 (≈ 0.467 µM)	16 (≈ 14.9 µM)			
CC[C@H]1OC(=O)[C@H](C)[C@@H](O[C@H]2C[C@@](C)(OC)[C@@H](O)[C@H](C)O2)[C@H](C)[C@@H](O[C@@H]2O[C@H](C)C[C@H](N(C)C)[C@H]2O)[C@](C)(O)C[C@@H](C)/C(=N\OCCNCCCCCCNCc2csc(-n3ccnc3)n2)[C@H](C)[C@@H](O)[C@]1(C)O [Compound 5, Erythromycin A (E)-9-[O-[2-[6-[(2-imidazol-1-ylthiazol-4-ylmethyl)amino]hexylamino]ethyl]oxime]]												>64	>64	4 (≈ 3.79 µM)	>64	1 (≈ 0.948 µM)	>64	4 (≈ 3.79 µM)	4 (≈ 3.79 µM)	2 (≈ 1.9 µM)
CC[C@H]1OC(=O)[C@H](C)[C@@H](O[C@H]2C[C@@](C)(OC)[C@@H](O)[C@H](C)O2)[C@H](C)[C@@H](O[C@@H]2O[C@H](C)C[C@H](N(C)C)[C@H]2O)[C@](C)(O)C[C@@H](C)/C(=N\OCCN(C)CCCCCCNCc2csc(-n3ccnc3)n2)[C@H](C)[C@@H](O)[C@]1(C)O [Compound 6]										10.1	16.0	>64	>64	4 (≈ 3.74 µM)	>64	2 (≈ 1.87 µM)	>64	1 (≈ 0.936 µM)	0.5 (≈ 0.468 µM)	0.25 (≈ 0.234 µM)
CC[C@H]1OC(=O)[C@H](C)[C@@H](O[C@H]2C[C@@](C)(OC)[C@@H](O)[C@H](C)O2)[C@H](C)[C@@H](O[C@@H]2O[C@H](C)C[C@H](N(C)C)[C@H]2O)[C@](C)(O)C[C@@H](C)/C(=N\OCCNCCCCCCNCc2csc(-n3cncn3)n2)[C@H](C)[C@@H](O)[C@]1(C)O [Compound 8, Erythromycin A (E)-9-[O-[2-[6-[(2-[1,2,4]triazol-1-ylthiazol-4-ylmethyl)amino]hexylamino]ethyl]oxime]]												>64	>64	8 (≈ 7.58 µM)	>64	2 (≈ 1.9 µM)	>64	2 (≈ 1.9 µM)	4 (≈ 3.79 µM)	1 (≈ 0.948 µM)
CC[C@H]1OC(=O)[C@H](C)[C@@H](O[C@H]2C[C@@](C)(OC)[C@@H](O)[C@H](C)O2)[C@H](C)[C@@H](O[C@@H]2O[C@H](C)C[C@H](N(C)C)[C@H]2O)[C@](C)(O)C[C@@H](C)/C(=N\OCCNCCCCCCNCc2csc(-n3cccn3)n2)[C@H](C)[C@@H](O)[C@]1(C)O [Compound 10, Erythromycin A (E)-9-[O-[2-[6-[(2-pyrazol-1-ylthiazol-4-ylmethyl)amino]hexylamino]ethyl]oxime]]												32 (≈ 30.3 µM)	>64	4 (≈ 3.79 µM)	32 (≈ 30.3 µM)	1 (≈ 0.948 µM)	64 (≈ 60.7 µM)	0.5 (≈ 0.474 µM)	1 (≈ 0.948 µM)	0.25 (≈ 0.237 µM)
CC[C@H]1OC(=O)[C@H](C)[C@@H](O[C@H]2C[C@@](C)(OC)[C@@H](O)[C@H](C)O2)[C@H](C)[C@@H](O[C@@H]2O[C@H](C)C[C@H](N(C)C)[C@H]2O)[C@](C)(O)C[C@@H](C)/C(=N\OCCN(C)CCCCCCNCc2csc(-n3cccn3)n2)[C@H](C)[C@@H](O)[C@]1(C)O [Compound 11, Erythromycin A (E)-9-[O-[2-[methyl[6-[(2-pyrazol-1-ylthiazol-4-ylmethyl]amino]hexyl]amino]ethyl]oxime]]										11.2	25.4	>64	>64	8 (≈ 7.49 µM)	>64	2 (≈ 1.87 µM)	>64	0.5 (≈ 0.468 µM)	0.0625 (≈ 0.0585 µM)	0.125 (≈ 0.117 µM)
Erythromycin A (E)-9-[O-[2-[6-[(2-[1,2,3]thiadiazol-5-ylthiazol-4-ylmethyl]amino]hexylamino]ethyl]oxime] [Compound 3]										4.5	25.4	64	>64	0.5	64	1	64			
